# Measured values published in PMC2726771 (The Journal of neuroscience : the official journal of the …, 2009).
# Several values for one entry are separate records, joined by “and”; a condition that tells them apart may be missing. Equal entries are not always repeated. Where two headings read alike, the source gives them in different places.
# Key:
# α3T115Cβ2 nAChR = α3T115Cβ2 nAChR (Rattus norvegicus, UniProt P04757+P12390, T142C); format: cell-based; settings: for time constant τ of MTSET modification: response to 300 μM ACh + 10 μM Mor; for potentiation (IACh+Mor/IACh), sample traces Fig. 2: 300 μM ACh + 10 μM Mor
# Chain of α3T115Cβ2 nAChR (P04757 26-499 T142C): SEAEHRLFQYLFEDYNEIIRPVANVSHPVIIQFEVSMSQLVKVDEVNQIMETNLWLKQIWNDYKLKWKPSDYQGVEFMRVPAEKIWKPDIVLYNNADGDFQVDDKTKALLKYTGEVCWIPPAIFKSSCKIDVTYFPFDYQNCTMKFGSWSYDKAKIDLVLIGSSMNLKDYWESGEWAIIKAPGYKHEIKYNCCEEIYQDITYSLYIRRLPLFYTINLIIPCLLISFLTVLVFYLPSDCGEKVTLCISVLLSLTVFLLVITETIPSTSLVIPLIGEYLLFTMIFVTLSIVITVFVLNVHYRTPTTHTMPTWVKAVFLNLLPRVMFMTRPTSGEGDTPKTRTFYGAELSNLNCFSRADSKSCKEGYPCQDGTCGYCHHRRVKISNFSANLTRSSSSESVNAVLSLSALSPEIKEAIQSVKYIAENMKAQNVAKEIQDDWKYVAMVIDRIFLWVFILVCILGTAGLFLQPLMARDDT
# Chain of α3T115Cβ2 nAChR (P12390 25-500): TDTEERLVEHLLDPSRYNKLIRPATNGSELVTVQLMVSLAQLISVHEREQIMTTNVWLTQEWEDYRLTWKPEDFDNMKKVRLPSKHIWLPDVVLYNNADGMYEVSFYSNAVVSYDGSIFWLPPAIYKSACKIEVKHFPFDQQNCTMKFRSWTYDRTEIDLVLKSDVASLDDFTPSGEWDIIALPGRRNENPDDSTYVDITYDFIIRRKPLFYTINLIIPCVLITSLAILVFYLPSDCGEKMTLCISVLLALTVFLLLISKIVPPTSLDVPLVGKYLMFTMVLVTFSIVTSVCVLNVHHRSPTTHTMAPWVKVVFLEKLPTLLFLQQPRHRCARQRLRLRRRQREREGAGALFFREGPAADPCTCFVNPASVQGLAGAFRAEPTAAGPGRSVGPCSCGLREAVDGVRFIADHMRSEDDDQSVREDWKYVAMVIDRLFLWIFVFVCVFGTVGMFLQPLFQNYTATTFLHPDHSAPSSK
# α3β2T150C nAChR = α3β2T150C nAChR (Rattus norvegicus, UniProt P04757+P12390, T176C); format: cell-based; settings: for decrease of Mor potency / reduction of maximum Mor-evoked current (efficacy): after 100 μM reagent; for potentiation (IACh+Mor/IACh), sample traces Fig. 2: 300 μM ACh + 10 μM Mor; for potentiation: 10 μM Mor
# Chain of α3β2T150C nAChR (P04757 26-499): as the sequence (P04757 26-499 T142C) above, with C117T counted along it
# Chain of α3β2T150C nAChR (P12390 25-500 T176C): as the sequence (P12390 25-500) above, with T152C counted along it
# α3β2T193C nAChR = α3β2T193C nAChR (Rattus norvegicus, UniProt P04757+P12390, T219C); format: cell-based
# Chain of α3β2T193C nAChR (P04757 26-499): as the sequence (P04757 26-499 T142C) above, with C117T counted along it
# Chain of α3β2T193C nAChR (P12390 25-500 T219C): as the sequence (P12390 25-500) above, with T195C counted along it
# α3β2 wt nAChR [1] = biological target: T1, α3β2 wt nAChR (Rattus norvegicus, UniProt P04757+P12390); format: cell-based
# T1 sequence (P04757 26-499): as the sequence (P04757 26-499 T142C) above, with C117T counted along it
# T1 sequence (P12390 25-500): as the sequence (P12390 25-500) above
# α3β2S192C nAChR = α3β2S192C nAChR (Rattus norvegicus, UniProt P04757+P12390, S218C); format: cell-based
# Chain of α3β2S192C nAChR (P04757 26-499): as the sequence (P04757 26-499 T142C) above, with C117T counted along it
# Chain of α3β2S192C nAChR (P12390 25-500 S218C): as the sequence (P12390 25-500) above, with S194C counted along it
# α3S161Cβ2 nAChR = α3S161Cβ2 nAChR (Rattus norvegicus, UniProt P04757+P12390, S188C); format: cell-based
# Chain of α3S161Cβ2 nAChR (P04757 26-499 S188C): as the sequence (P04757 26-499 T142C) above, with C117T, S163C counted along it
# Chain of α3S161Cβ2 nAChR (P12390 25-500, stated change not applied): as the sequence (P12390 25-500) above
# α3E113R = settings: ref Laureijs and Levandoski, unpublished; cited from earlier work
# α3β2 wt nAChR [2] = biological target: T1, α3β2 wt nAChR; settings: ref Wu et al., 2008, cited from earlier work
# α3A106Cβ2 nAChR = α3A106Cβ2 nAChR (Rattus norvegicus, UniProt P04757+P12390, A133C); format: cell-based
# Chain of α3A106Cβ2 nAChR (P04757 26-499 A133C): as the sequence (P04757 26-499 T142C) above, with A108C, C117T counted along it
# Chain of α3A106Cβ2 nAChR (P12390 25-500): as the sequence (P12390 25-500) above
# α3β2S148C nAChR = α3β2S148C nAChR (Rattus norvegicus, UniProt P04757+P12390, S174C); format: cell-based
# Chain of α3β2S148C nAChR (P04757 26-499): as the sequence (P04757 26-499 T142C) above, with C117T counted along it
# Chain of α3β2S148C nAChR (P12390 25-500 S174C): as the sequence (P12390 25-500) above, with S150C counted along it
# [3] = 100 μM MTSET + 200 μM ACh treatment, ACh + 10 μM Mor
# [4] = 100 μM MTSET + 200 μM ACh, four 30-sec
# [5] = after 2-min 100 μM MTSET co-applied with ACh
# [6] = 100 μM MTSET co-applied with ACh, 2 min
# [7] = relative to response to ACh alone at [ACh] ~ EC50
# [8] = 100 μM MTSET applied alone, 2 min
smiles,measurement,setting,value
"CS(=O)(=O)SCc1ccccc1 [MTSBn, benzylmethanethiosulfonate]",potentiation post/pre,α3T115Cβ2 nAChR; after 100 μM MTS reagent alone,0.99 ± 0.10
same,reduction of ACh-evoked currents,α3T115Cβ2 nAChR; after 100 μM MTS reagent alone,29 ± 9%
same,reduction of ACh/Mor-evoked currents,α3T115Cβ2 nAChR; after 100 μM MTS reagent alone,30 ± 10%
same,decrease of Mor potency,α3β2T150C nAChR; four 30-sec doses,4 fold
same,reduction of maximum Mor-evoked current (efficacy),α3β2T150C nAChR; four 30-sec doses,45%
"C[N+](C)(C)CCSS(C)(=O)=O.[Br-] [MTSET, [2-(trimethyl-ammonium)ethyl]methanesthiosulfonate bromide]",time constant τ of MTSET modification,α3T115Cβ2 nAChR; 30 μM MTSET alone,170 s and 167 ± 22 s
same,time constant τ of MTSET modification,α3T115Cβ2 nAChR; 30 μM MTSET co-applied with 100 μM Mor,720 s and 719 ± 137 s
same,time constant τ of MTSET modification,α3T115Cβ2 nAChR; 30 μM MTSET co-applied with 300 μM ACh,34 s and 34 ± 12 s
same,reduction of ACh-evoked currents,α3T115Cβ2 nAChR; after 100 μM MTS reagent alone,unchanged
same,reduction of ACh/Mor-evoked currents,α3T115Cβ2 nAChR; after 100 μM MTS reagent alone,32 ± 9%
same,reduction of degree of potentiation,α3T115Cβ2 nAChR; after 100 μM MTS reagent alone,31 ± 8%
same,decrease of Mor efficacy,α3T115Cβ2 nAChR; after 100 μM MTSET alone,66%
same,decrease in efficacy of ACh/Mor concentration-response curve,α3β2T150C nAChR; [3],50%
same,decrease in potency of ACh/Mor concentration-response curve,α3β2T150C nAChR; [3],3 fold
same,decrease in ACh efficacy (maximum response at high ACh),α3β2T150C nAChR; [4],75%
same,decrease in ACh potency after MTSET/agonist co-application,α3β2T150C nAChR; [4],4.5 fold
same,decrease of Mor potency,α3β2T150C nAChR; four 30-sec doses,without changing the potency
same,reduction of maximum Mor-evoked current (efficacy),α3β2T150C nAChR; four 30-sec doses,75 - 80%
"Cc1ccsc1C=CC1=NCCCN1C.O=C(O)C(O)C(O)C(=O)O [Mor, 1,4,5,6-tetrahydro-1-methyl-2-(2-[3-methyl-2-thienyl]ethenyl)pyrimidine, tartrate salt]",EC50,α3T115Cβ2 nAChR,30 µM
same,potentiation IACh+Mor/I30 μM ACh,α3T115Cβ2 nAChR; 30 μM ACh (~EC20),7.7
same,potentiation post/pre,α3T115Cβ2 nAChR; 50 μM Mor included with the MTSET/300 μM ACh co-application,1.05 ± 0.07
same,Mor Potentiation % Change after MTS,"α3T115Cβ2 nAChR; 100 μM MTSET co-applied with ACh (300 μM), 2 min",* -30 ± 4%
same,potentiation IACh+Mor/I300 μM ACh,α3T115Cβ2 nAChR; 300 μM ACh (~EC50),2.2
same,Mor-evoked Response nH,"α3T115Cβ2 nAChR; Hill coefficient, pre MTSET in Fig. 8",1.4 ± 0.1
same,Mor Potentiation IACh+Mor/IACh,α3T115Cβ2 nAChR; [ACh] ~ EC50 ± 10 μM Mor,2.3 ± 0.3
same,Mor nH post MTSET,"α3T115Cβ2 nAChR; after 100 μM MTSET alone, four 30-sec doses",2.2 ± 1.4
same,Mor Emax post MTSET,"α3T115Cβ2 nAChR; after 100 μM MTSET alone, normalized to 300 μM ACh before modification",0.1 and 0.10 ± 0.01
same,"potentiation (IACh+Mor/IACh), sample traces Fig. 2",α3T115Cβ2 nAChR; [5],2.8
same,"potentiation (IACh+Mor/IACh), sample traces Fig. 2",α3T115Cβ2 nAChR; pre-MTSET,4.5
same,Mor-evoked Response Emax,"α3T115Cβ2 nAChR; relative to response to ACh alone at [ACh] ~ EC50 (300 μM), pre MTSET in Fig. 8",0.3 and 0.29 ± 0.01
same,EC50,α3β2T193C nAChR,20 ± 3 µM
same,Mor Potentiation % Change after MTS,α3β2T193C nAChR; [6],2 ± 4%
same,Mor-evoked Response nH,α3β2T193C nAChR; Hill coefficient,1.7 ± 0.3
same,Mor Potentiation IACh+Mor/IACh,α3β2T193C nAChR; [ACh] ~ EC50 ± 10 μM Mor,1.5 ± 0.1
same,Mor-evoked Response Emax,α3β2T193C nAChR; [7],0.24 ± 0.1
same,Mor Potentiation % Change after MTS,α3β2 wt nAChR [1]; [6],3 ± 3%
same,Mor Potentiation IACh+Mor/IACh,α3β2 wt nAChR [1]; [ACh] ~ EC50 ± 10 μM Mor,1.9 ± 0.1
same,"potentiation (IACh+Mor/IACh), sample traces Fig. 2","α3β2 wt nAChR [1]; pre-MTSET, 100 μM ACh + 10 μM Mor",2.8
same,EC50,α3β2S192C nAChR,20 ± 6 µM
same,change in Mor potentiation after MTSET alone,"α3β2S192C nAChR; 100 μM MTSET alone, four 30-sec doses, 30 μM ACh",no change in potentiation outside of error
same,Mor-evoked Response nH,α3β2S192C nAChR; Hill coefficient,1.8 ± 0.7
same,Mor Potentiation IACh+Mor/IACh,α3β2S192C nAChR; [ACh] ~ EC50 ± 10 μM Mor,1.4 ± 0.1
same,Mor-evoked Response Emax,α3β2S192C nAChR; [7],0.08 ± 0.01
same,Mor Potentiation % Change after MTS,α3S161Cβ2 nAChR; [8],3 ± 8%
same,Mor Potentiation IACh+Mor/IACh,α3S161Cβ2 nAChR; [ACh] ~ EC50 ± 10 μM Mor,1.3 ± 0.1
same,Mor potentiation,α3E113R,completely abolishes Mor potentiation
same,Mor-evoked Response nH,α3β2 wt nAChR [2]; Hill coefficient,3.1 ± 1.6
same,Mor-evoked Response Emax,α3β2 wt nAChR [2]; [7],0.2
same,Mor Potentiation % Change after MTS,α3β2T150C nAChR; [8],* 52 ± 17%
same,Mor-evoked Response nH,α3β2T150C nAChR; Hill coefficient,2.3 ± 0.2
same,EC50,"α3β2T150C nAChR; Mor EC50, Control, pre-treatment control, Fig. 7",20 ± 2 µM
same,EC50,"α3β2T150C nAChR; Mor EC50 after BrACh, after 100 μM BrACh, four 30-sec doses",30 ± 5 µM
same,EC50,"α3β2T150C nAChR; Mor EC50 after MTSBn, after 100 μM MTSBn, four 30-sec doses",80 ± 20 µM
same,EC50,"α3β2T150C nAChR; Mor EC50 after MTSEA, after 100 μM MTSEA, four 30-sec doses",30 ± 1 µM
same,EC50,"α3β2T150C nAChR; Mor EC50 after MTSET, after 100 μM MTSET, four 30-sec doses",20 ± 4 µM
same,EC50,"α3β2T150C nAChR; Mor-evoked Response EC50, Mor as agonist",26 ± 1 µM
same,Mor Potentiation IACh+Mor/IACh,α3β2T150C nAChR; [ACh] ~ EC50 ± 10 μM Mor,1.6 ± 0.1
same,Mor nH after BrACh,α3β2T150C nAChR; after 100 μM BrACh,1.5 ± 0.4
same,Mor Emax after BrACh,"α3β2T150C nAChR; after 100 μM BrACh, normalized to pre-treatment 300 μM Mor response",0.96 ± 0.07
same,Mor nH after MTSBn,α3β2T150C nAChR; after 100 μM MTSBn,2.7 ± 1.5
same,Mor Emax after MTSBn,"α3β2T150C nAChR; after 100 μM MTSBn, normalized to pre-treatment 300 μM Mor response",0.56 ± 0.07
same,Mor nH after MTSEA,α3β2T150C nAChR; after 100 μM MTSEA,2.3 ± 0.3
same,Mor Emax after MTSEA,"α3β2T150C nAChR; after 100 μM MTSEA, normalized to pre-treatment 300 μM Mor response",0.20 ± 0.01
same,Mor nH after MTSET,α3β2T150C nAChR; after 100 μM MTSET,3.4 ± 1.9
same,Mor Emax after MTSET,"α3β2T150C nAChR; after 100 μM MTSET, normalized to pre-treatment 300 μM Mor response",0.24 ± 0.02
same,"potentiation (IACh+Mor/IACh), sample traces Fig. 2",α3β2T150C nAChR; [5],7.5
same,potentiation,"α3β2T150C nAChR; measured at ~EC50 ACh, after MTSET treatment",4.0
same,potentiation,"α3β2T150C nAChR; measured at ~EC50 ACh, before MTSET treatment",1.6
same,potentiation,"α3β2T150C nAChR; measured at ~EC75 ACh, after MTSET treatment",3.0
same,potentiation,"α3β2T150C nAChR; measured at ~EC75 ACh, before MTSET treatment",1.5
same,"Mor Emax, Control",α3β2T150C nAChR; normalized to pre-treatment 300 μM Mor response,1.00
same,"potentiation (IACh+Mor/IACh), sample traces Fig. 2",α3β2T150C nAChR; pre-MTSET,3.3
same,I300 μM Mor/I300 μM ACh (pre),α3β2T150C nAChR; pre-treatment,0.14 ± 0.01
same,"Mor nH, Control","α3β2T150C nAChR; pre-treatment control, Fig. 7",2.2 ± 0.4
same,Mor-evoked Response Emax,α3β2T150C nAChR; [7],0.33 ± 0.04
same,EC50,α3A106Cβ2 nAChR,62 ± 11 µM
same,change in Mor potentiation after MTSET alone,"α3A106Cβ2 nAChR; 100 μM MTSET alone, four 30-sec doses, 100 μM ACh",no change in potentiation outside of error
same,Mor-evoked Response nH,α3A106Cβ2 nAChR; Hill coefficient,2.1 ± 0.7
same,Mor Potentiation IACh+Mor/IACh,α3A106Cβ2 nAChR; [ACh] ~ EC50 ± 10 μM Mor,1.7 ± 0.2
same,Mor-evoked Response Emax,α3A106Cβ2 nAChR; [7],0.56 ± 0.05
same,EC50,α3β2S148C nAChR,110 ± 40 µM
same,Mor Potentiation % Change after MTS,α3β2S148C nAChR; [8],-7 ± 10%
same,Mor-evoked Response nH,α3β2S148C nAChR; Hill coefficient,1.4 ± 0.5
same,Mor Potentiation IACh+Mor/IACh,α3β2S148C nAChR; [ACh] ~ EC50 ± 10 μM Mor,4.9 ± 1.0
same,Mor-evoked Response Emax,α3β2S148C nAChR; [7],0.36 ± 0.05
